Here are results for 4 compounds from patent publication US12331040B2 (Karyopharm Therapeutics Inc., priority 2013, dated 2025).

The subject of experiment [1] is MS751 cells. As to the kind of experiment: MTT cell proliferation assay. Type of experiment: cell-based. The note with it: Homo sapiens. In outline: (§1)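 5,000-10,000 cells/well, overnight attach; 8 conc., 1 nM–30 μM; MTT ~4 h; formazan solubilized, OD 490 nm; % inhibition = (1−(ODo/OD))×100 vs neg. control; mostly duplicate, mean±SE.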
For orientation: Tetrazolium dyes change colour on reduction, which living cells bring about.

Experiment [2] relates to 3T3 cells. As to the kind of experiment: MTT cell proliferation assay. To be noted: Mus musculus. Type of experiment: cell-based. In outline: as §1
The subject of experiment [3] is Z138 cells. The experiment in a line: MTT cell proliferation assay. Type of experiment: cell-based. To be noted: Homo sapiens. An outline of the steps: as §1
Experiment [4] has as its system Molt-4 xenografts. The experiment in a line: Molt-4 T-ALL xenograft in SCID mice. It counts as in vivo, mouse. The note with it: 100 mg/kg PO twice daily (BID). The method, then: In this study, the impact of Compounds 667 and 728 on tumor growth was tested using the Molt-4 T-ALL cancer xenograft model in SCID mice. MOLT-4 (CRL-1582) acute lymphoblastic leukemia cells were obtained from ATCC. These cells were grown in RPMI-1640 medium supplemented with 10% fetal bovine serum, 1% penicillin and streptomycin. Cells were sub-cultured by transferring floating cells to a new flask and trypsinizing adherent cells before subculturing at a ratio of 1:4. Molt-4 cells were harvested by centrifugation and counted using a hemocytometer. Cells were resuspended in PBS at a 5×10^7 cells per mL. Cells were placed on ice and mixed with an equal volume of Matrigel (BD Biosciences CB-40234). This mixture was kept on ice and injected into the left flank of mice in a volume of 0.2 mL, equivalent to 5×10^6 cells per mouse. Twenty-four (24) CB-17 SCID mice were inoculated subcutaneously in the left flank with the Molt-4 cells. Treatment was initiated when the tumors reached a mean volume of approximately 100 mm^3. Mice were allocated to three (3) groups of eight (8) mice. Mice were treated with vehicle, Compound 667 or Compound 728. Compounds 667 and 728 (100 mg/kg) were given orally (PO) twice daily (BID) beginning on Day 1. Animal weights and conditions were recorded daily, and tumors were measured on Mondays, Wednesdays and Fridays.

For experiment [5], the system named is RPMI8226 cells. As to the kind of experiment: MTT cell proliferation assay. Type of experiment: cell-based. To be noted: Homo sapiens, RPMI-8226. The method, then:
(§2) The MTT cell proliferation assay was used to study the cytotoxic properties of the compounds. The assay was performed according to the method described by Roche Molecular Biochemicals, with minor modifications. The assay is based on the cleavage of the tetrazolium salt, MTT, in the presence of an electron-coupling reagent. The water-insoluble formazan salt produced must be solubilized in an additional step. Cells grown in a 96-well tissue culture plate were incubated with the MTT solution for approximately 4 hours. After this incubation period, a water-insoluble formazan dye formed. After solubilization, the formazan dye was quantitated using a scanning multi-well spectrophotometer (ELISA reader). […] The cells were seeded at 5,000-10,000 cells in each well of 96-well plate in 100 μL of fresh culture medium and were allowed to attach overnight. The stock solutions of the compounds were diluted in 100 μL cell culture medium to obtain eight concentrations of each test compound, ranging from 1 nM to 30 μM. […] All optical densities were measured at 490 nm using a Vmax Kinetic Microplate Reader (Molecular Devices). In most cases, the assay was performed in duplicate and the results were presented as a mean percent inhibition to the negative control±SE. The following formula was used to calculate the percent of inhibition: Inhibition (%)=(1−(ODo/OD))×100.
(§3) The M24 cell line is derived from human melanoma cells. The U2OS cell line is a human osteosarcoma cell line expressing wild type p53 and Rb, but lacking p16. The MM1S cell line is a multiple myeloma cell line; the parent cell line, MM.1, was established from peripheral blood of a multiple myeloma patient who had become resistant to steroid-based therapy. The RPMI8226 cell line is derived from human B lymphocyte cells. NHDF cells are normal human dermal fibroblast cells. The MRC-5 cell line is derived from normal lung tissue of a fetus. The PC3 cell line is a human prostate cancer cell line. The DU-145 cell line is a human prostate cancer cell line. The MDA-MB-231 cell line is a human breast adenocarcinoma cell line. The MDA-MB-468 cell line is a human breast carcinoma cell line. HL-60 cells are human promyelocytic leukemia cells. Hep G2 cells are human hepatocellular carcinoma cells. HEP 3B cells are human hepatocellular carcinoma cells. The DLD-1 cell line is a colorectal adenocarcinoma cell line. The HCT-15 cell line is a human colon carcinoma cell line. The Colo-205 cell line is derived from a human adenocarcinoma of the colon. The LoVo cell line is a human colon adenocarcinoma cell line.

The test system of experiment [6] is MM1S cells. The experiment in a line: MTT cell proliferation assay. It counts as cell-based. The note with it: Homo sapiens, MM1.S. How it is done:
as §2, §3

Experiment [7] relates to HL-60 cells. As to the kind of experiment: MTT cell proliferation assay. It counts as cell-based. The note with it: Homo sapiens. How it is done:
as §2, §3

Experiment [8] deals with MDA-MB-468 tumors. The experiment in a line: Antibody staining of resected MDA-MB-468 tumors from treated mice. Type of experiment: in vivo, mouse. To be noted: mice bearing MDA-MB-468 tumors; 30 mg/kg orally every day for three weeks. How it is done:
Mice bearing MDA-MB-468 tumors were treated for three weeks with 30 mg/kg Compound 525 orally every day. Tumors were resected from the mice and fixed in buffered formalin and put into paraffin blocks. The blocks were sectioned and stained with antibodies against Ki67, Apotag, c-Myc, p-S473-Akt1 or p-S450-Akt1. The cells were imaged with a Nikon microscope.

For experiment [9], the system named is HEP 3B cells. The experiment in a line: MTT cell proliferation assay. Type of experiment: cell-based. The note with it: Homo sapiens, Hep3B; HEP 3B cell line; read-out: MTT Assay IC50, HEP 3B. How it is done:
as §2, §3

Experiment [10] relates to Hep G2 cells. The experiment in a line: MTT cell proliferation assay. Type of experiment: cell-based. To be noted: Homo sapiens, HepG2; Hep G2 cell line; read-out: MTT Assay IC50, Hep G2. The method, then: as §2, §3
Experiment [11] has as its system MRC-5 cells. As to the kind of experiment: MTT cell proliferation assay. Type of experiment: cell-based. To be noted: Homo sapiens, MRC5; MRC-5 cell line. How it is done: as §2, §3
Setting [12] is: MS751, MS751 cells, approximately 64-72 hours incubation, read-out: MTT Assay IC50, MS-751.
[13] abbreviates: NIH3T3, approximately 64-72 hours incubation, read-out: MTT Assay IC50, 3T3.
[14] abbreviates: Z-138, Z138 cells, approximately 64-72 hours incubation, read-out: MTT Assay IC50, Z-138.
[15] abbreviates: MS751, MS751 cells, approximately 64-72 hours incubation, read-out: MTT Assay IC50 MS-751.
Setting [16] is: NIH3T3, approximately 64-72 hours incubation, read-out: MTT Assay IC50 3T3.
[17] abbreviates: Z-138, Z138 cells, approximately 64-72 hours incubation, read-out: MTT Assay IC50 Z-138.

By pIC50 is commonly meant the negative decadic logarithm of the IC50, by convention in mol/L.

pIC50: −log10 of the molar value. Where two headings read alike, the source gives them in different places.

As to `Nc1ccc(/C=C/C(=O)NCc2cc3cc(-c4ccc(C(=S)N5CCC(F)(F)CC5)cn4)cc(C(F)(F)F)c3o2)cn1` [Compound 667, (E)-3-(6-aminopyridin-3-yl)-N-((5-(5-(4,4-difluoropiperidine-1-carbonothioyl)pyridin-2-yl)-7-(trifluoromethyl)benzofuran-2-yl)methyl)acrylamide], the figures for the pIC50 in experiment [1] (setting [12]), in experiment [2] (setting [13]) and in [3] (setting [14]) were greater than 7.00, less than 5.00 and greater than 7.00, respectively. For the same compound, in experiment [4], the “median tumor volume of Molt-4 xenografts (as a percentage of pre-dose tumor volume)” value is recorded as “tumor growth inhibition”.
Regarding `Nc1ccc(/C=C/C(=O)NCc2cc3cc(-c4ccc(C(=O)N5CCC(F)(F)CC5)cc4)cc(-c4ccc(F)cc4)c3o2)cn1` [Compound 728, (E)-3-(6-aminopyridin-3-yl)-N-((5-(4-(4,4-difluoropiperidine-1-carbonyl)phenyl)-7-(4-fluorophenyl)benzofuran-2-yl)methyl)acrylamide], the results for the pIC50 in experiment [1] (setting [12]), in experiment [2] (setting [13]) and in experiment [3] (setting [14]) were greater than 7.00, 5.30 to 7.00 and greater than 7.00, respectively. For the same compound, in [4], the “median tumor volume of Molt-4 xenografts (as a percentage of pre-dose tumor volume)” value is given as “tumor growth inhibition”.
`Nc1ccc(/C=C/C(=O)NCc2cc3cc(-c4ccc(C(=O)N5CC[C@H](F)C5)cc4)cc(C(F)(F)F)c3o2)cn1` [Compound 525, (S,E)-3-(6-aminopyridin-3-yl)-N-((5-(4-(3-fluoropyrrolidine-1-carbonyl)phenyl)-7-(trifluoromethyl)benzofuran-2-yl)methyl)acrylamide]: the pIC50 in [5] (RPMI8226 cell line, read-out: MTT Assay IC50, RPMI8226) is 5.30 to 7.00; in experiment [5] (RPMI8226 cells, 72-hour MTT, read-out: RPMI8226 MTT IC50), 6.37; in [6] (MM1S cell line, read-out: MTT Assay IC50, MM1S), 5.30 to 7.00; in experiment [6] (MM1S cells, 72-hour MTT, read-out: MM1S MTT IC50), 6.51; in experiment [7] (HL-60 cell line, read-out: MTT Assay IC50, HL-60), 5.30 to 7.00; in experiment [7] (HL-60 cells, 72-hour MTT, read-out: HL-60 MTT IC50), 5.97. The pIC50 was 6.52 in [1] (MS751, 72 h, MS751 cells, 72-hour MTT, read-out: MS751 MTT IC50); 5.30 to 7.00 in [1] (setting [15]); less than 5.00 in experiment [2] (NIH3T3, 72-hour MTT, read-out: 3T3 MTT IC50); less than 5.00 in experiment [2] (setting [16]); 7.00 in experiment [3] (Z-138, 72 h, Z-138 cells, 72-hour MTT, read-out: Z-138 MTT IC50); 5.30 to 7.00 in [3] (setting [17]). Also, the “PAK4 pathway signaling through Akt (phospho-Akt1) in tumors” value in [8] is “overall reductions”. Further, the “apoptosis (Apotag) in tumors” value in experiment [8] is “increase”. The c-Myc in tumors entry in [8] is listed as “overall reductions”. Further, the “proliferation (Ki67) in tumors” value in [8] is given as “reduction”.
With `Nc1ccc(/C=C/C(=O)NCc2cc3cc(-c4ccc(C(=O)N5CCOCC5)cc4)cc(Cl)c3o2)cn1` [Compound 502, (E)-3-(6-aminopyridin-3-yl)-N-((7-chloro-5-(4-(morpholine-4-carbonyl)phenyl)benzofuran-2-yl)methyl)acrylamide], the pIC50 in experiment [9] is 5.30 to 7.00; in [10], 5.30 to 7.00; in experiment [11] it was 5.30 to 7.00; in [1] (setting [15]), 5.30 to 7.00; in experiment [2] (setting [16]), less than 5.00; in experiment [3] (setting [17]), 5.30 to 7.00.
